Assays:
[1] = Systemic uptake from the colon assessed as PpIX skin fluorescence after colonic instillation; assay type: in vivo, hairless mice (C3.Cg/TifBomTac-hr)
Protocol: Experiments were performed in hairless mice weighing 20 g (C3.Cg/TifBomTac-hr). […] The animals were fasted for 24 hours but with free access to water before the experiment. Prior to administration of the test preparation, the mice were anaesthetised with Hypnorm/Dormicum. This was also repeated every second hour.
When ALA hexylester is administered sytemically, it induces PpIX formation in the entire body. The systemic uptake of ALA hexylester after colonic administration was therefore assessed as skin fluorescence. To assess the PpIX skin fluorescence, the mice were photographed using a fluorescence camera (Medeikonos PDD/PDT, Medeikonos AB, Gothenburg, Sweden) at excitation wavelengths of 365 and 405 nm and 2 sec illumination time. Each photo was calibrated to a fluorescence standard (Uranyl Standard, J&M, Analytische Mess and Regeltecknik, GmbH, Hamburg, Germany) and adjusted for background fluorescence. The mean amount of PpIX fluorescence in each image was calculated by means of image analyzer-software (MatLab 7.2.0.232, Math-Works, Natick, Mass., USA).
All dilutions were performed in 0.9% NaCl (150 mM=300 mOsmol/l). For the colon instillation, a 1000 μl micropipette with a plastic tip was used. […] In all experiments, instillation lasted until the experiment was finished (approx. 5 hours).
Increasing doses (8 to 40 mM ALA hexylester) were given by anal administration to mice and the resulting skin fluorescence measured as described. […] The resulting systemic fraction was proportional to the concentration of ALA hexylester in the enema.
The ALA hexylester was dissolved as the corresponding hydrochloride salt. 20 mM ALA hexylester constitutes an osmolarity of approx. 40 mOsmol/l.
(§1) The purpose of this study was to investigate the effect of adding sorbitol to an enema formulation containing 20 mM ALA hexylester in an attempt to reduce the systemic uptake of the photosensitizer. It was discovered in pilot experiments that sorbitol at concentrations above 300 mM gave diarrhea. Therefore, the effect of 300 mM sorbitol in 0.9% NaCl (600 mOsmol/l) was investigated by comparing the skin fluorescence in two mice that were given 20 mM ALA hexylester (in 0.9% NaCl) with the skin fluorescence in two mice that had received 20 mM ALA hexylester and 300 mM sorbitol. The osmolarities of these solutions are outlined below. • 1. 20 mM ALA hexylester in 0.9% NaCl: (40+300) mOsmol/l=340 mOsmol/l • 2. 20 mM ALA hexylester and 300 mM sorbitol in 0.9% NaCl: (40+300+300) mOsmol/l=640 mOsmol/l (hypertonic preparation)

[2] = Absorption from the colon after enema (pharmacokinetic studies with 14C-labelled agents, HAL enema studies); assay type: in vivo; conditions: enema preparations
Excerpt: Such high systemic uptake of photosensitizer may constitute a safety issue for the patient due to the high dosage of agent circulating within the bloodstream.

[3] = Osmolarity of preparations; assay type: physicochemical; conditions: calculated from concentrations
Excerpt: An osmometer may be used to determine the osmolarity of a solution. There are several different techniques employed in osmometry; vapour pressure depression osmometers determine the concentration of osmotically active particles that reduce the vapour pressure of a solution; membrane osmometers measure the osmotic pressure of a solution separated from pure solvent by a semi-permeable membrane; and freezing point depression osmometers are used to determine the osmotic strength of a solution (since osmotically active compounds depress the freezing point of a solution). Osmolarity may be measured using a vapour pressure osmometer such as that supplied by ELITech Group (Vapro 5600 vapour pressure osmometer). Where reference is made herein to specific values for osmolarity, these values may be determined using such apparatus operated under standard temperature and pressure conditions.
The osmolarity of small molecules can normally be calculated from their concentration in solution. For example, in the case of simple salts such as NaCl: 0.9% NaCl=150 mM. NaCl is fully dissociated in water and both Na^+ and Cl^− contribute to the osmolarity (i.e. each mole of NaCl becomes two osmoles in solution, one mole of Na^+ and one mole of Cl^−). The osmolarity is therefore 150 mM×2=300 mOsmol/l. […]

[4] = tested on: pre-malignant conditions in the colon; conditions: enema, 200 mg in 500 ml or 1000 ml phosphate buffered saline; Mayinger et al. 2008; cited from earlier work
[5] = parameters: species or system mice; conditions: C3.Cg/TifBomTac-hr (hairless), mouse, in vivo
Protocol: as §1

| skin fluorescence ([1]; 8 mM ALA hexylester (concentration used clinically), colonic instillation 0.6 ml in 0.9% NaCl, FIG. 1) | skin fluorescence ([1]; 20 mM ALA hexyl ester, colonic administration) | relationship between concentration in the enema and resulting skin fluorescence ([1]; 8 to 40 mM, anal administration, FIG. 1) | concentration of ALA hexylester appearing saturating for skin fluorescence ([1]; colonic instillation 0.6 ml in 0.9% NaCl, FIG. 1) [µM] | osmolarity [3] | sorbitol concentration that gave diarrhea [5] | SMILES | absorption of the active photosensitizing agent in the colon [2] | more polyps detected by PDD than with white light endoscopic imaging [4] [%] |
| --- | --- | --- | --- | --- | --- | --- | --- | --- |
| no skin fluorescence | reasonable levels of skin sensitivity | clear dose-response relationship | ≥ 30000 | approx. 40 mOsmol/l |  | CCCCCCOC(=O)CCC(=O)CN [ALA hexylester, 5-aminolevulinic acid hexyl ester] | absorption of a significant amount | 28 |
|  |  |  |  |  | above 300 mM | OC[C@@H](O)[C@@H](O)[C@H](O)[C@@H](O)CO [sorbitol] |  |  |

Reference: US20130211215A1, “HYPEROSMOTIC PREPARATIONS COMPRISING 5-AMINOLEVULINIC ACID OR DERIVATIVE AS PHOTOSENSITIZING AGENT” (Photocure ASA, priority 2010, published 2013)
